Test system: mouse stroma of human SK-Mel-28 xenografts
Experiment: Gene expression in mouse stroma of human tumour xenografts
Format: in vivo
Conditions: 30 μg intratumoural
Method: Mouse stroma in human tumour xenografts were obtained from mice in which the Sk-Mel-28 human melanoma cell line was injected subcutaneously into 2 sites on the flanks of each BALB/c FoxnInu mouse (2×10^6 cells/site) and allowed to grow to approximately 7 mm diameter. Each tumour was then injected with 50 μL of 20% propylene glycol containing 30 μg Compound 1 or with 50 µL of 20% propylene glycol. At different times after injection a mouse was euthanased and the tumours harvested, the skin covering removed, and the intact tumours stored at −80° C.
RNA was extracted from 30 mg of frozen tumour or 1×10^7 cells using the QiagenRNeasyPlus Mini Kit, according to manufacturer's instructions, then quantitated with a NanoDrop instrument and integrity confirmed on denaturing agarose gels bearing a 1 kb DNA marker and stained with ethidium bromide.
Approximately 500 ng of total unlabelled RNA was adjusted to a final volume of 11 μL with nuclease-free water. The RNA was incubated with 9 μL of the reverse transcriptase master mix (1 μL of T7 Oligo (dT) Primer, 2 μL of 10× first strand buffer, 4 μL of dNTP mix, 1 μL of RNase inhibitor and 1 μL of ArrayScript) at 42° C. for 2 hr. This was followed by the second strand cDNA synthesis step which involved a further incubation at 16° C. for 2 hr with 80 µL of the second strand master mix (63 μL nuclease-free water, 10 μL 10× second strand buffer, 4 μL dNTP mix, […] and 1 μL RNase H). The cDNA was purified by filtering through a cDNA Filter Cartridge with 250 μL of cDNA binding buffer and washing with 500 μL of the wash buffer provided in the kit. Purified cDNA was eluted with 20 μL of 55° C. nuclease-free water. Each cDNA sample was incubated with 7.5 μL of the IVT master mix (2.5 μL of T7 10× reaction buffer, 2.5 μL of T7 enzyme mix and 2.5 μL biotin-NTP mix) at 37° C. for 16 hr. The reaction was stopped with the addition of 75 μL of nuclease-free water to each cRNA sample. The biotinylated, amplified RNA was purified by filtering the cRNA samples through cRNA Filter Cartridges with 350 μL of cRNA binding buffer and 250 μL of 100% ethanol mixed together prior to loading onto the filters. The cRNA filter cartridges with attached RNA were then washed with 650 μL of wash buffer before eluting purified cRNA with 200 μL of 55° C. nuclease-free water.
The cRNA samples were heated at 65° C. for 5 min and collected by pulse centrifugation. After heating at 65 degrees for 5 min, approximately 750 ng of the cRNA sample was aliquoted into separate tubes to which were added ˜5 μL of RNase-free water and 10 μL of Hyb Mix. Approximately 15 μL of the prepared cRNA mix was loaded onto the Illumina Expression BeadChips. Subsequent steps of hybridisation and washing were carried out according to the Whole-Genome Gene Expression Direct Hybridization Assay Guide supplied by Illumina.
The Human HT-12 v4 Expression BeadChips cover more than 47,000 transcripts and known splice variants across the human transcriptome. The MouseRef-8 v2.0 Expression BeadChips cover approximately 25,600 well-annotated RefSeq (Reference Sequence) transcripts, comprising over 19,000 unique genes.
BeadChips were read by the iScan System, and transferred via GenomeStudio into GeneSpring GX v12.5 (Agilent Technologies, Santa Clara, Calif., USA). The expression values were normalized using quantile normalization with default settings. The entities were filtered based on the detection score calculated by GenomeStudio where p≤0.05 was considered significant.
Expression data using mouse gene-specific microarrays were performed for 2-3 individual human SK-Mel-28 xenografts treated by intratumoural injection with 30 μg of Compound 1, along with 3 vehicle-only sites, the data combined. Only those mouse genes for which expression in the Compound 1 treated site was >2 times higher or >2 times lower than in the vehicle-injected site were examined for relevance to wound healing.

## CC=C(C)C(=O)OC1C(C)C2(O)C(C3OC3(CO)C(O)C3(O)C(=O)C(C)=CC32)C2C(C)(C)C12OC(=O)C(C)CC (stereo not drawn) [Compound 1, 12-tigloyl-13-(2-methylbutanoyl)-6,7-epoxy-4,5,9,12,13,20-hexahydroxy-1-tigliaen-3-one]
0.5 h
  Acta1: Direction of regulation: Up
  Tgm2: Direction of regulation: Up
  Thbs2: Direction of regulation: Down
0.5 h, Down
  Thbs2: Fold change in expression: 3.98 fold
0.5 h, Up
  Acta1: Fold change in expression: 9.3 fold
  Tgm2: Fold change in expression: 2.67 fold
1 h
  Col17a1: Direction of regulation: Up
  Itga7: Direction of regulation: Up
  Krt5: Direction of regulation: Up
  Krt10: Direction of regulation: Up
  Krt15: Direction of regulation: Up
  Krt17: Direction of regulation: Up
  Krtdap: Direction of regulation: Up
  LCe1a1: Direction of regulation: Up
  Lce1a2: Direction of regulation: Up
  Lce1b: Direction of regulation: Up
  Lce1m: Direction of regulation: Up
  Lce1d: Direction of regulation: Up
  Lor: Direction of regulation: Up
  krt14: Direction of regulation: Up
1 h, Up
  Col17a1: Fold change in expression: 2.7 fold
  Itga7: Fold change in expression: 2.1 fold
  Krt5: Fold change in expression: 2.8 fold
  Krt10: Fold change in expression: 7 fold
  Krt15: Fold change in expression: 2.3 fold
  Krt17: Fold change in expression: 2.9 fold
  Krtdap: Fold change in expression: 7 fold
  LCe1a1: Fold change in expression: 2.7 fold
  Lce1a2: Fold change in expression: 3 fold
  Lce1b: Fold change in expression: 4.8 fold
  Lce1m: Fold change in expression: 4.9 fold
  Lce1d: Fold change in expression: 3.3 fold
  Lor: Fold change in expression: 11.6 fold
  krt14: Fold change in expression: 9.4 fold
2 h
  Col17a1: Direction of regulation: Up
  Krt10: Direction of regulation: Up
  Lor: Direction of regulation: Up
  krt14: Direction of regulation: Up
2 h, Up
  Col17a1: Fold change in expression: 2 fold
  Krt10: Fold change in expression: 2.4 fold
  Lor: Fold change in expression: 2.8 fold
  krt14: Fold change in expression: 5.6 fold
4 h
  Acta1: Direction of regulation: Up
  CXCL1: Direction of regulation: Up
  Col17a1: Direction of regulation: Up
  Egr1: Direction of regulation: Up
  Krt10: Direction of regulation: Up
  Krt17: Direction of regulation: Up
  Krt71: Direction of regulation: Up
  Krtdap: Direction of regulation: Up
  LCe1a1: Direction of regulation: Up
  Tgm2: Direction of regulation: Down
  krt14: Direction of regulation: Up
4 h, Down
  Tgm2: Fold change in expression: 2 fold
4 h, Up
  Acta1: Fold change in expression: 30.3 fold
  CXCL1: Fold change in expression: 12.1 fold
  Col17a1: Fold change in expression: 3.2 fold
  Egr1: Fold change in expression: 4.7 fold
  Krt10: Fold change in expression: 8.6 fold
  Krt17: Fold change in expression: 10 fold
  Krt71: Fold change in expression: 3.2 fold
  Krtdap: Fold change in expression: 3.8 fold
  LCe1a1: Fold change in expression: 2.8 fold
  krt14: Fold change in expression: 9.7 fold
8 h
  Acta1: Direction of regulation: Up
  Egr1: Direction of regulation: Up
  Krt10: Direction of regulation: Down
  Krt17: Direction of regulation: Down
8 h, Down
  Krt10: Fold change in expression: 2.1 fold
  Krt17: Fold change in expression: 2 fold
8 h, Up
  Acta1: Fold change in expression: 8.5 fold
  Egr1: Fold change in expression: 5.34 fold
